The source of these data is patent US20020176882A1, “Additive the improvement and/or stabilization of the keeping quality of microbially perishable products” (priority 1997, published 2002).

The subject of one test is Enterobacteria. Kind of test: quantitative suspension assay, Enterobacteria. It counts as cell-based, Enterobacteriaceae. The settings on record: control 10^8/ml. The source says: (§1) Bacteriological assay methods for additives quantitative suspension assay II (suspension test)
(§2) Microorganisms: aerobic microorganisms (total germ count), Enterobacteriaceae, Enterococci, Lactobacilli, yeasts, molds. These methods are capable of determining the effects of the additives as a function of dosage and duration of action using different microorganisms on different nutrient media.
(§3) Quantitative suspension assay II—suspension test a) Inoculate test germ suspension with the desired test germ, e.g., 10^6/ml, expose for 1-60 min. Place desired formulation to be tested into desiganted germ suspension tubes (different percentages). Await end of exposure times and pour or inoculate into the appropriate agar plates, depending on the germ. […]
(§4) b) Treat the test germ suspension with the desired formulation to be tested (see a) prior to inoculating the test germs (see a). Await end of exposure times and then inoculate with the respective test germs, and inoculate or pour into the appropriate agar plates depending on the test germ.

Another test concerns Enterococci. Description: quantitative suspension assay, Enterococci. It counts as cell-based. Particulars: control 10^8/ml.
Description: as §1, §2, §3, §4

In another test the test system is Lactobacilli. Kind of test: quantitative suspension assay, Lactobacilli. The settings on record: control 10^5/ml. The class given is cell-based.
Description: as §1, §2, §3, §4

A further test deals with yeasts. Kind of test: quantitative suspension assay, yeasts. The class given is cell-based. The settings on record: control 10^5/ml.
Description: as §1, §2, §3, §4

A further test concerns molds. Kind of test: quantitative suspension assay, molds. Particulars: control 10^5/ml. The class given is cell-based.
Description: as §1, §2, §3, §4

Test [1] deals with aerobic microorganisms (total germ count). Kind of test: quantitative suspension assay, total germ count. The class given is cell-based. The settings on record: control 10^8/ml.
Description: as §1, §2, §3, §4
Further: test concentration or dose not given here.

For `CC(O)C(=O)O` (stereo not drawn) [Lactic acid], the Enterobacteria germ count with Enterobacteria (5 min exp. time), with Enterobacteria (15 min exp. time) and with Enterobacteria (60 min exp. time) was 10^6 /ml in each case. Besides, the Enterococci germ count with Enterococci (5 min exp. time), with Enterococci (15 min exp. time) and with Enterococci (60 min exp. time) was 10^7 /ml in each case. In addition, the Lactobacilli germ count is 10^5 /ml with Lactobacilli (5 min exp. time), 10^4 /ml with Lactobacilli (15 min exp. time) and 10^4 /ml in the test with Lactobacilli (60 min exp. time). Also, the yeasts germ count with yeasts (5 min exp. time), in the test with yeasts (15 min exp. time) and with yeasts (60 min exp. time) was 10^5 /ml in each case. Further, the molds germ count in the test on molds (5 min exp. time), with molds (15 min exp. time) and in the test with molds (60 min exp. time) was 10^5 /ml throughout. Further, the total germ count in test [1] (5 min exp. time), in test [1] (15 min exp. time) and in test [1] (60 min exp. time) was 10^7 /ml throughout.

As for tannin [Formulation 1a], the Enterobacteria germ count in the test on Enterobacteria (5 min exp. time), with Enterobacteria (15 min exp. time) and with Enterobacteria (60 min exp. time) was 10^6 /ml each time. The results for the Enterococci germ count with Enterococci (5 min exp. time), in the test on Enterococci (15 min exp. time) and in the test with Enterococci (60 min exp. time) were 10^7 /ml, 10^6 /ml and 10^6 /ml, respectively. Also, the Lactobacilli germ count with Lactobacilli (5 min exp. time) is given as 10^5 /ml; in the test with Lactobacilli (15 min exp. time) it was 10^4 /ml; with Lactobacilli (60 min exp. time), 10^4 /ml. Also, the yeasts germ count with yeasts (5 min exp. time), in the test on yeasts (15 min exp. time) and in the test with yeasts (60 min exp. time) was 10^4 /ml in each case. Further, the molds germ count with molds (5 min exp. time), with molds (15 min exp. time) and in the test on molds (60 min exp. time) was 10^4 /ml each time. The total germ count in test [1] (5 min exp. time), in test [1] (15 min exp. time) and in test [1] (60 min exp. time) was 10^6 /ml in each case.

Consider `OCc1ccccc1` [Benzyl alcohol], for which the Enterobacteria germ count in the test on Enterobacteria (5 min exp. time), with Enterobacteria (15 min exp. time) and in the test with Enterobacteria (60 min exp. time) was 10^7 /ml throughout. Besides, the results for the Enterococci germ count with Enterococci (5 min exp. time), in the test with Enterococci (15 min exp. time) and in the test with Enterococci (60 min exp. time) were 10^8 /ml, 10^7 /ml and 10^7 /ml, respectively. Moreover, the Lactobacilli germ count in the test with Lactobacilli (5 min exp. time), in the test with Lactobacilli (15 min exp. time) and in the test on Lactobacilli (60 min exp. time) was 10^5 /ml in each case. Further, the yeasts germ count is recorded as 10^5 /ml in the test on yeasts (5 min exp. time), 10^4 /ml with yeasts (15 min exp. time) and 10^4 /ml in the test with yeasts (60 min exp. time). Besides, the molds germ count in the test on molds (5 min exp. time) was 10^5 /ml; in the test with molds (15 min exp. time) it was 10^4 /ml; in the test on molds (60 min exp. time), 10^4 /ml. The results for the total germ count in test [1] (5 min exp. time), in test [1] (15 min exp. time) and in test [1] (60 min exp. time) were 10^8 /ml, 10^7 /ml and 10^7 /ml, respectively.

`CC(O)CO` (stereo not drawn) [Propylene glycol]: the Enterobacteria germ count with Enterobacteria (5 min exp. time), in the test on Enterobacteria (15 min exp. time) and with Enterobacteria (60 min exp. time) was 10^8 /ml throughout. The Enterococci germ count in the test on Enterococci (5 min exp. time), in the test with Enterococci (15 min exp. time) and in the test on Enterococci (60 min exp. time) was 10^8 /ml each time. Further, the Lactobacilli germ count in the test on Lactobacilli (5 min exp. time), in the test on Lactobacilli (15 min exp. time) and in the test on Lactobacilli (60 min exp. time) was 10^5 /ml each time. Moreover, the yeasts germ count with yeasts (5 min exp. time), in the test with yeasts (15 min exp. time) and with yeasts (60 min exp. time) was 10^5 /ml throughout. Further, the molds germ count in the test with molds (5 min exp. time), with molds (15 min exp. time) and with molds (60 min exp. time) was 10^5 /ml in each case. For the same molecule, the total germ count in test [1] (5 min exp. time), in test [1] (15 min exp. time) and in test [1] (60 min exp. time) was 10^9 /ml in each case.

Regarding `OCC(O)CO` [Glycerol], the Enterobacteria germ count with Enterobacteria (5 min exp. time), in the test with Enterobacteria (15 min exp. time) and in the test with Enterobacteria (60 min exp. time) was 10^7 /ml each time. The Enterococci germ count in the test on Enterococci (5 min exp. time), with Enterococci (15 min exp. time) and in the test on Enterococci (60 min exp. time) was 10^8 /ml in each case. The Lactobacilli germ count in the test on Lactobacilli (5 min exp. time), in the test on Lactobacilli (15 min exp. time) and in the test with Lactobacilli (60 min exp. time) was 10^5 /ml each time. The yeasts germ count in the test on yeasts (5 min exp. time), with yeasts (15 min exp. time) and in the test with yeasts (60 min exp. time) was 10^5 /ml each time. In addition, the molds germ count in the test with molds (5 min exp. time), in the test with molds (15 min exp. time) and with molds (60 min exp. time) was 10^5 /ml in each case. For the same molecule, the total germ count in test [1] (5 min exp. time) is 10^6 /ml; in test [1] (15 min exp. time), 10^8 /ml; in test [1] (60 min exp. time) it was 10^8 /ml.
